Measurements as given in patent US9951049B2, “Pyrazole linked benzimidazole conjugates and a process for preparation thereof” (Council of Scientific & Industrial Reseach, priority 2014, dated 2018).

Key:
[1] = system: fifty six human tumor cell lines; assay: NCI human tumor cell line screen (48 h, SRB), all cell lines; details: various cell lines
CNS cancer cell lines = assay: NCI SRB screen, CNS panel average; details: Homo sapiens, 48 h, read-out: Log10 GI50 (converted)
Leukemia cell lines = assay: NCI SRB screen, Leukemia panel average; details: Homo sapiens, 48 h, read-out: Log10 GI50 (converted)
Breast Cancer cell lines = assay: NCI SRB screen, Breast Cancer panel average; details: Homo sapiens, 48 h, read-out: Log10 GI50 (converted)
Melanoma cell lines = assay: NCI SRB screen, Melanoma panel average; details: Homo sapiens, 48 h, read-out: Log10 GI50 (converted)
[2] = system: Non-small-cell lung cancer cell lines; assay: NCI SRB screen, Non-small-cell lung panel average; details: Homo sapiens, 48 h, read-out: Log10 GI50 (converted)
[3] = system: Prostate cancer cell lines; assay: NCI SRB screen, Prostate panel average; details: Homo sapiens, 48 h, read-out: Log10 GI50 (converted)
[4] = system: Ovarian cancer cell lines; assay: NCI SRB screen, Ovarian panel average; details: Homo sapiens, 48 h, read-out: Log10 GI50 (converted)
Colon cancer cell lines = assay: NCI SRB screen, Colon panel average; details: Homo sapiens, 48 h, read-out: Log10 GI50 (converted)
Renal cancer cell lines = assay: NCI SRB screen, Renal panel average; details: Homo sapiens, 48 h, read-out: Log10 GI50 (converted)

COc1ccc(-c2cc(-c3nc4cc(Cl)ccc4[nH]3)[nH]n2)c(OC)c1 [8e, 5-chloro-2-(3-(2,4-dimethoxyphenyl)-1H-pyrazol-5-yl)-1H-benzo[d]imidazole]
mean graph pattern: profile of activity and selectivity [1]: an interesting profile of activity and selectivity

COc1ccc(-c2cc(-c3nc4cc(Cl)c(Cl)cc4[nH]3)[nH]n2)c(OC)c1 [10e, 5,6-dichloro-2-(3-(2,4-dimethoxyphenyl)-1H-pyrazol-5-yl)-1H-benzo[d]imidazole]
mean graph pattern: profile of activity and selectivity [1]: an interesting profile of activity and selectivity

COC(=O)Nc1nc2ccc(C(=O)c3cccs3)cc2[nH]1 [Nocodazole, reference compound]
GI50 (CNS cancer cell lines): 0.0229 µM
GI50 (Leukemia cell lines): 0.0123 µM
GI50 (Breast Cancer cell lines): 0.155 µM
GI50 (Melanoma cell lines): 0.0224 µM
GI50 [2]: 0.0204 µM
GI50 [3]: 0.0145 µM
GI50 [4]: 0.145 µM
GI50 (Colon cancer cell lines): 0.0178 µM
GI50 (Renal cancer cell lines): 0.107 µM

COc1ccc(-c2cc(-c3nc4cc(Cl)c(F)cc4[nH]3)[nH]n2)c(OC)c1 [13e, 5-chloro-2-(3-(2,4-dimethoxyphenyl)-1H-pyrazol-5-yl)-6-fluoro-1H-benzo[d]imidazole]
mean graph pattern: profile of activity and selectivity [1]: an interesting profile of activity and selectivity

COc1ccc(-c2cc(-c3nc4cc(C(F)(F)F)ccc4[nH]3)[nH]n2)c(OC)c1 [11e, 2-(3-(2,4-dimethoxyphenyl)-1H-pyrazol-5-yl)-5-(trifluoromethyl)-1H-benzo[d]imidazole]
mean graph pattern: profile of activity and selectivity [1]: an interesting profile of activity and selectivity

COc1ccc(-c2cc(-c3nc4cc(F)ccc4[nH]3)[nH]n2)c(OC)c1 [7e, 2-(3-(2,4-dimethoxyphenyl)-1H-pyrazol-5-yl)-5-fluoro-1H-benzo[d]imidazole]
mean graph pattern: profile of activity and selectivity [1]: an interesting profile of activity and selectivity

COc1ccc(-c2cc(-c3nc4cc([N+](=O)[O-])ccc4[nH]3)[nH]n2)c(OC)c1 [12e, 2-(3-(2,4-dimethoxyphenyl)-1H-pyrazol-5-yl)-5-nitro-1H-benzo[d]imidazole]
mean graph pattern: profile of activity and selectivity [1]: an interesting profile of activity and selectivity
